This assay deals with T1, human TRPV4 (Homo sapiens, UniProt Q9HBA0).
T1 construct: host or cells: tetracycline-inducible Flp-In T-REx 293 cells
Put plainly: Hypotonicity-induced Ca2+ influx (Fluo-4, FDSS). The assay is classed as cell-based. In outline: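 Flp-In T-REx 293 cells with tetracycline-induced human TRPV4, loaded with Fluo-4 for 60 min at 25 °C. Compound added 5 min before hypotonic mannitol/CaCl2 solution. Ca2+ signal recorded for 4.5 min on FDSS.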

The mark [1] stands for this setting: Flp-In T-REx 293 cells expressing human TRPV4, examples listed under heading 'Human IC50<50 nM'.
Setting [2] is: Flp-In T-REx 293 cells stably expressing human TRPV4, compounds listed by potency bin (<10 nM Tables 96-1/96-2, <3 nM Table 97).

Some results are limits rather than exact numbers.

T1 sequence (Q9HBA0 whole entry): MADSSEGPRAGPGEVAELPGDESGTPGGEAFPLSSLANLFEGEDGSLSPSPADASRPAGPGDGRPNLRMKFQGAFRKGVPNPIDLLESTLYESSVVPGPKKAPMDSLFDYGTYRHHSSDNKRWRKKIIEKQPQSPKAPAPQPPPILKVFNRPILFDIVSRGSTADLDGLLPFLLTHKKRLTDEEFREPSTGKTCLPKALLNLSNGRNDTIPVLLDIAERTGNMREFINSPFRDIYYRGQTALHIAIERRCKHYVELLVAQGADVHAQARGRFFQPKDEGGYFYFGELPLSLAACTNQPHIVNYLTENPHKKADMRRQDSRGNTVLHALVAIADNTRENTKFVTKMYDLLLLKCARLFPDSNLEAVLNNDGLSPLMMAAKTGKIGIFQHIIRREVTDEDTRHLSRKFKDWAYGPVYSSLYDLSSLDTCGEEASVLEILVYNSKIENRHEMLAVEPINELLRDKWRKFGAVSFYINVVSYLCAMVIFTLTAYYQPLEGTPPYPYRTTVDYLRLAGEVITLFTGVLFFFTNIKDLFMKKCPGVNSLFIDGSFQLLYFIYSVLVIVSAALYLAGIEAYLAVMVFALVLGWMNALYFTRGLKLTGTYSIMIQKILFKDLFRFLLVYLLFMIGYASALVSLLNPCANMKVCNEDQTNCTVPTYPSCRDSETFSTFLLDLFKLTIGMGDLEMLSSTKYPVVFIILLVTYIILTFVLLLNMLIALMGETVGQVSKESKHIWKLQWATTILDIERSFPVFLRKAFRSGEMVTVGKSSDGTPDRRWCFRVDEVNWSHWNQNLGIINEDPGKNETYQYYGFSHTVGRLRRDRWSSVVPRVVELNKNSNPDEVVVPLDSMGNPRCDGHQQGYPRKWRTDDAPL

For `N#Cc1ccc(-c2cccc(C3(c4nc5c(c(=O)[nH]4)CN(C(=O)[C@H](O)c4cccc(C(F)(F)F)c4)CCC5)CC3)c2)cn1` [42-55], the IC50 was under 50 nM under setting [1] and under 3 nM under setting [2]. Turning to `O=C([C@H](O)c1cccc(C(F)(F)F)c1)N1CCCc2nc(C3(c4cccc(-c5ccccc5F)c4)CC3)[nH]c(=O)c2C1` [42-56], the IC50 is under 50 nM under setting [1] and under 10 nM under setting [2]. Take `Cc1ccc(-c2cccc(C3(c4nc5c(c(=O)[nH]4)CN(C(=O)[C@H](O)c4cccc(C(F)(F)F)c4)CCC5)CC3)c2)cc1` [42-57]: the IC50 by setting is: under setting [1], under 50 nM; under setting [2], under 10 nM. Taken in the same sequence, the figures for `O=C([C@H](O)c1cccc(C(F)(F)F)c1)N1CCCc2nc(C3(c4cccc(-c5cccc(F)c5)c4)CC3)[nH]c(=O)c2C1` [42-58] were under 50 nM and under 10 nM. The compound `O=C([C@H](O)c1cccc(C(F)(F)F)c1)N1CCCc2nc(C3(c4cccc(-c5ccc(F)cc5)c4)CC3)[nH]c(=O)c2C1` [42-59] displayed an IC50 under setting [1] of under 50 nM and an IC50 under setting [2] of under 10 nM. Consider `Cc1ccccc1-c1cccc(C2(c3nc4c(c(=O)[nH]3)CN(C(=O)[C@H](O)c3cccc(C(F)(F)F)c3)CCC4)CC2)c1` [42-60], for which the IC50 is, setting by setting: under setting [1], under 50 nM; under setting [2], under 10 nM.

Take `O=C([C@H](O)c1cccc(C(F)(F)F)c1)N1CCCc2nc(C3(c4cccc(-c5cc(F)cc(F)c5)c4)CC3)[nH]c(=O)c2C1` [42-61]: the IC50 under setting [1] was under 50 nM and the IC50 under setting [2] is under 10 nM. Turning to `O=C([C@H](O)c1cccc(C(F)(F)F)c1)N1CCCc2nc(C3(c4cccc(-c5ccc(F)c(F)c5)c4)CC3)[nH]c(=O)c2C1` [42-62], the IC50 reads like this: under setting [1], under 50 nM; under setting [2], under 10 nM. As to `N#Cc1ccccc1-c1cccc(C2(c3nc4c(c(=O)[nH]3)CN(C(=O)[C@H](O)c3cccc(C(F)(F)F)c3)CCC4)CC2)c1` [42-63], the IC50 runs as follows: under setting [1], under 50 nM; under setting [2], under 10 nM. In the case of `Cc1cccc(-c2cccc(C3(c4nc5c(c(=O)[nH]4)CN(C(=O)[C@H](O)c4cccc(C(F)(F)F)c4)CCC5)CC3)c2)c1` [42-64], the 50% inhibitory concentration (IC50) is, setting by setting: under setting [1], under 50 nM; under setting [2], under 10 nM. `N#Cc1ccc(-c2cccc(C3(c4nc5c(c(=O)[nH]4)CN(C(=O)[C@H](O)c4cccc(C(F)(F)F)c4)CCC5)CC3)c2)cc1` [42-65]: the IC50 was under 50 nM under setting [1] and under 10 nM under setting [2].

For `N#Cc1cc(-c2cccc(C3(c4nc5c(c(=O)[nH]4)CN(C(=O)[C@H](O)c4cccc(C(F)(F)F)c4)CCC5)CC3)c2)ccc1F` [42-66], the IC50 under setting [1] was under 50 nM and the IC50 under setting [2] was under 3 nM. `N#Cc1ccc(-c2cccc(C3(c4nc5c(c(=O)[nH]4)CN(C(=O)[C@H](O)c4cccc(C(F)(F)F)c4)CCC5)CC3)c2)cc1F` [42-67]: the IC50 is, setting by setting: under setting [1], under 50 nM; under setting [2], under 10 nM. With `N#Cc1ccc(-c2cccc(C3(c4nc5c(c(=O)[nH]4)CN(C(=O)[C@H](O)c4cccc(C(F)(F)F)c4)CCC5)CC3)c2)cc1C#N` [42-68], the IC50 is under 50 nM under setting [1] and under 10 nM under setting [2]. For `N#Cc1cc(F)cc(-c2cccc(C3(c4nc5c(c(=O)[nH]4)CN(C(=O)[C@H](O)c4cccc(C(F)(F)F)c4)CCC5)CC3)c2)c1` [42-69], the IC50 by setting is: under setting [1], under 50 nM; under setting [2], under 10 nM. Consider `O=C(Cc1cccc(-c2cccc(C(F)(F)F)c2)c1)N1CCCc2nc(C3(c4cccc(C5=CCCCC5)c4)CC3)[nH]c(=O)c2C1` [42-70], for which the IC50 reads like this: under setting [1], under 50 nM; under setting [2], under 10 nM. As to `N#Cc1cc(C#N)cc(-c2cccc(C3(c4nc5c(c(=O)[nH]4)CN(C(=O)[C@H](O)c4cccc(C(F)(F)F)c4)CCC5)CC3)c2)c1` [42-71], the IC50 runs as follows: under setting [1], under 50 nM; under setting [2], under 10 nM. As for `O=C([C@H](O)c1cccc(C(F)(F)F)c1)N1CCCc2nc(C3(c4cccc(C5=CCN(C(=O)C6(C(F)(F)F)CC6)CC5)c4)CC3)[nH]c(=O)c2C1` [42-72], the IC50 by setting is: under setting [1], under 50 nM; under setting [2], under 10 nM. With `O=C([C@H](O)c1cccc(C(F)(F)F)c1)N1CCCc2nc(C3(c4cccc(C5=CCN(C(=O)N6CCCCC6)CC5)c4)CC3)[nH]c(=O)c2C1` [42-73], the IC50 was under 50 nM under setting [1] and under 10 nM under setting [2]. The like results for `O=C(CN1CCc2ccccc21)N1CC=C(c2cccc(C3(c4nc5c(c(=O)[nH]4)CN(C(=O)[C@H](O)c4cccc(C(F)(F)F)c4)CCC5)CC3)c2)CC1` [42-74] were, in that order, under 50 nM and under 10 nM. As for `O=C([C@H](O)c1cccc(C(F)(F)F)c1)N1CCCc2nc(C3(c4cccc(C5=CCN(S(=O)(=O)c6ccc(F)cc6)CC5)c4)CC3)[nH]c(=O)c2C1` [42-75], the IC50 is under 50 nM under setting [1] and under 10 nM under setting [2]. On to `O=C([C@H](O)c1cccc(C(F)(F)F)c1)N1CCCc2nc(C3(c4cccc(C5=CCN(S(=O)(=O)C6CCCCC6)CC5)c4)CC3)[nH]c(=O)c2C1` [42-76], for which the IC50 runs as follows: under setting [1], under 50 nM; under setting [2], under 10 nM. With `O=C([C@H](O)c1cccc(C(F)(F)F)c1)N1CCCc2nc(C3(c4cccc(C5=CCN(C(=O)[C@H]6CC[C@H](C(F)(F)F)CC6)CC5)c4)CC3)[nH]c(=O)c2C1` [42-77], the IC50 is under 50 nM under setting [1] and under 3 nM under setting [2]. With `O=C([C@H](O)c1cccc(C(F)(F)F)c1)N1CCCc2nc(C3(c4cccc(C5=CCN(S(=O)(=O)Cc6ccccc6)CC5)c4)CC3)[nH]c(=O)c2C1` [42-78], the IC50 runs as follows: under setting [1], under 50 nM; under setting [2], under 10 nM. The like results for `O=C(Cc1ccc(COc2ccccc2)cc1)N1CC=C(c2cccc(C3(c4nc5c(c(=O)[nH]4)CN(C(=O)[C@H](O)c4cccc(C(F)(F)F)c4)CCC5)CC3)c2)CC1` [42-79] were, in that order, under 50 nM and under 10 nM. Regarding `O=C([C@H](O)c1cccc(C(F)(F)F)c1)N1CCCc2nc(C3(c4cccc(C5=CCN(CC(F)(F)F)CC5)c4)CC3)[nH]c(=O)c2C1` [42-81], the IC50 under setting [1] was under 50 nM and the IC50 under setting [2] is under 10 nM.

Turning to `COc1ccc(C(=O)N2CC=C(c3cccc(C4(c5nc6c(c(=O)[nH]5)CN(C(=O)[C@H](O)c5cccc(C(F)(F)F)c5)CCC6)CC4)c3)CC2)cc1OC1CCCC1` [42-82], the IC50 under setting [1] was under 50 nM and the IC50 under setting [2] was under 3 nM. For the compound `O=C([C@H](O)c1cccc(C(F)(F)F)c1)N1CCCc2nc(C3(c4cccc(C5=CCN(C(=O)C6(c7cccc(C(F)(F)F)c7)CC6)CC5)c4)CC3)[nH]c(=O)c2C1` [42-83], the IC50 is under 50 nM under setting [1] and under 3 nM under setting [2]. As for `O=C(NC1CCCCC1)N1CC=C(c2cccc(C3(c4nc5c(c(=O)[nH]4)CN(C(=O)[C@H](O)c4cccc(C(F)(F)F)c4)CCC5)CC3)c2)CC1` [42-84], the IC50 was under 50 nM under setting [1] and under 3 nM under setting [2].

`CC(C)(C)CC(=O)N1CCN(c2ccc(-c3cccc(C4(c5nc6c(c(=O)[nH]5)CN(C(=O)[C@H](O)c5cccc(C(F)(F)F)c5)CCC6)CC4)c3)cn2)CC1` [42-85]: the IC50 is under 50 nM under setting [1] and under 10 nM under setting [2].

In the case of `O=C(Cc1ccccc1)N1CCN(c2ccc(-c3cccc(C4(c5nc6c(c(=O)[nH]5)CN(C(=O)[C@H](O)c5cccc(C(F)(F)F)c5)CCC6)CC4)c3)cn2)CC1` [42-86], the IC50 runs as follows: under setting [1], under 50 nM; under setting [2], under 10 nM.

For the compound `O=C([C@H](O)c1cccc(C(F)(F)F)c1)N1CCCc2nc(C3(c4cccc(-c5ccc(N6CCC(c7ccccc7)CC6)nc5)c4)CC3)[nH]c(=O)c2C1` [42-87], the IC50 is under 50 nM under setting [1] and under 10 nM under setting [2]. For the compound `O=C([C@H](O)c1cccc(C(F)(F)F)c1)N1CCCc2nc(C3(c4cccc(-c5ccc(N6CCC(OCc7ccccc7)CC6)nc5)c4)CC3)[nH]c(=O)c2C1` [42-88], the IC50 by setting is: under setting [1], under 50 nM; under setting [2], under 3 nM. Compound `CC(C)C(=O)N1CCN(c2ccc(-c3cccc(C4(c5nc6c(c(=O)[nH]5)CN(C(=O)[C@H](O)c5cccc(C(F)(F)F)c5)CCC6)CC4)c3)cn2)CC1` [42-89] had an IC50 under setting [1] of under 50 nM and an IC50 under setting [2] of under 10 nM. `O=C(Cc1ccc(COc2ccccc2)cc1)N1CCN(c2ccc(-c3cccc(C4(c5nc6c(c(=O)[nH]5)CN(C(=O)[C@H](O)c5cccc(C(F)(F)F)c5)CCC6)CC4)c3)cn2)CC1` [42-90] gave an IC50 under setting [1] of under 50 nM and an IC50 under setting [2] of under 10 nM. Consider `CN(Cc1ccc(-c2cccc(C3(c4nc5c(c(=O)[nH]4)CN(C(=O)[C@H](O)c4cccc(C(F)(F)F)c4)CCC5)CC3)c2)cc1)C(=O)N1CCCCC1` [42-91], for which the IC50 runs as follows: under setting [1], under 50 nM; under setting [2], under 10 nM. Taken in the same sequence, the figures for `CN(Cc1ccc(-c2cccc(C3(c4nc5c(c(=O)[nH]4)CN(C(=O)[C@H](O)c4cccc(C(F)(F)F)c4)CCC5)CC3)c2)cc1)C(=O)NC1CCCCC1` [42-93] were under 50 nM and under 3 nM. Take `O=C([C@H](O)c1cccc(C(F)(F)F)c1)N1CCCc2nc(C3(c4cccc(-c5ccc(CN6CCC(OCc7ccccc7)CC6)cc5)c4)CC3)[nH]c(=O)c2C1` [42-95]: the IC50 was under 50 nM under setting [1] and under 10 nM under setting [2]. As to `O=C([C@H](O)c1cccc(C(F)(F)F)c1)N1CCCc2nc(C3(c4cccc(-c5ccc(CN6CCc7c(Cl)cccc7C6)cc5)c4)CC3)[nH]c(=O)c2C1` [42-96], the IC50 is under 50 nM under setting [1] and under 10 nM under setting [2]. In the case of `O=C([C@H](O)c1cccc(C(F)(F)F)c1)N1CCCc2nc(C3(c4cncc(-c5ccccc5)c4)CC3)[nH]c(=O)c2C1` [43-1], the IC50 under setting [1] is under 50 nM and the IC50 under setting [2] is under 3 nM.

Take `O=C([C@H](O)c1cccc(C(F)(F)F)c1)N1CCCc2nc(C3(c4cncc(-c5cnsc5)c4)CC3)[nH]c(=O)c2C1` [43-2]: under setting [1], the IC50 was under 50 nM.

Turning to `O=C(C(O)c1cccc(-c2cccc(OC(F)(F)F)c2)c1)N1CCc2nc(C3(c4ccccc4)CC3)[nH]c(=O)c2C1` (centres unmarked) [44-1, 6-(2-hydroxy-2-(3′-(trifluoromethoxy)-[1,1′-biphenyl]-3-yl)acetyl)-2-(1-phenylcyclopropyl)-5,6,7,8-tetrahydropyrido[4,3-d]pyrimidin-4(3H)-one], the IC50 was under 50 nM under setting [1] and under 10 nM under setting [2].

The values above are taken from patent US12673946B2, “Pyrimidin-4(3H)-one derivatives as TRPV4 antagonists” (RaQualia Pharma Inc., priority 2020, dated 2026).
